# Assay results reported in publication PMC7321560 (2020).
# Assays:
# [1] = test system: split dopamine aptamer (aptamer1 + aptamer2) (DNA, aptamer) TTCGCAGGTGTGGAGTGACGTCG/CGACGCCAGTTTGAAGGTTCG; test: organic electrochemical transistor gate potential shift, Langmuir fit; conditions: 10 mM Tris; 0.5 μM aptamer2; aptamer1 on gold gate; apparent (transducer-dependent)
# [2] = test system: split dopamine aptamer (aptamer1 + aptamer2) (DNA, aptamer) TTCGCAGGTGTGGAGTGACGTCG/CGACGCCAGTTTGAAGGTTCG; test: square wave voltammetry, Langmuir fit (amperometric aptasensor); conditions: 10 mM Tris; 0.5 μM aptamer2; aptamer1 on gold; apparent (transducer-dependent)
# [3] = test system: split dopamine aptamer (aptamer1 + aptamer2) (DNA, aptamer) TTCGCAGGTGTGGAGTGACGTCG/CGACGCCAGTTTGAAGGTTCG; test: organic electrochemical transistor gate potential shift; conditions: 10 mM Tris; 0.5 μM aptamer2; highest concentration 10 μM; shift under 15 mV or reversed
# [4] = test system: split dopamine aptamer (aptamer1 + aptamer2) (DNA, aptamer) TTCGCAGGTGTGGAGTGACGTCG/CGACGCCAGTTTGAAGGTTCG; test: square wave voltammetry (amperometric aptasensor); conditions: 10 mM Tris; 0.5 μM aptamer2; highest concentration 50 μM
Compound,KD [1],KD [2],binding [3],binding [4]
NCCc1ccc(O)c(O)c1,0.007 nM,5000 nM,,
N[C@@H](CCC(=O)O)C(=O)O,,,no,no
NCCCC(=O)O,,,no,no

# Results, then the molecule that gave them:
KD [1],KD [2],binding [3],binding [4],Compound
,,no,no,O=c1[nH]c(=O)c2[nH]c(=O)[nH]c2[nH]1
,,no,no,O=C1O[C@H]([C@@H](O)CO)C(O)=C1O
